In patent US20230398119A1, “COMBINATION THERAPY INVOLVING DIARYL MACROCYCLIC COMPOUNDS” (TURNING POINT THERAPEUTICS, INC., priority 2019, published 2023):

Assays:
[1] = test system: Calu-6 cells; assay: Caspase-Glo 3/7 apoptosis assay; type: cell-based, human; details: single agent, 48 hours, trametinib 50 nM
Description: Two thousand cells per well were seeded in 384 well white plate, and then treated with compounds for 24 or 48 hours (37° C., 5% CO2). Cell caspase-3/7 activity, a major hallmark of apoptosis, was measured using Caspase-Glo® 3/7 detection assay (Promega) following the manufactures's protocol.

[2] = test system: patients with mutant KRAS NSCLC; details: Phase 2; trametinib compared to docetaxel; trial prematurely terminated; cited from earlier work

Question: Which results are given for `CC(=O)Nc1cccc(-n2c(=O)n(C3CC3)c(=O)c3c(Nc4ccc(I)cc4F)n(C)c(=O)c(C)c32)c1` [Trametinib, N-(3-{3-cyclopropyl-5-[(2-fluoro-4-iodophenyl)amino]-6,8-dimethyl-2,4,7-trioxo-3,4,6,7-tetrahydropyrido[4,3-d]pyrimidin-1(2H)-yl}phenyl)acetamide]?
Answer: caspase-3/7 activity [1]: increased; treatment response in the interim analysis [2]: crossed the futility boundary
